Test results from ChEMBL document CHEMBL3774368, “1,2,4-Triazolyl octahydropyrrolo[2,3-b]pyrroles: A new series of potent and selective dopamine D3 receptor antagonists” (Bioorg Med Chem, 2016).
Activity calls are given as the source filed them. No cut-off for these calls is given here.

Legend:
[1] = Solubility of compound; type: physicochemical
Homo sapiens = species: Homo sapiens; assay: Selectivity ratio of IC50 for human ERG to Ki for human dopamine D3 receptor
[2] = molecular target: Voltage-gated inwardly rectifying potassium channel KCNH2 (Homo sapiens, UniProt Q12809); assay: Inhibition of human ERG tail current expressed in HEK293 cells after 5 mins by patch clamp assay
Voltage-gated inwardly rectifying potassium channel KCNH2, sequence (Q12809 whole entry): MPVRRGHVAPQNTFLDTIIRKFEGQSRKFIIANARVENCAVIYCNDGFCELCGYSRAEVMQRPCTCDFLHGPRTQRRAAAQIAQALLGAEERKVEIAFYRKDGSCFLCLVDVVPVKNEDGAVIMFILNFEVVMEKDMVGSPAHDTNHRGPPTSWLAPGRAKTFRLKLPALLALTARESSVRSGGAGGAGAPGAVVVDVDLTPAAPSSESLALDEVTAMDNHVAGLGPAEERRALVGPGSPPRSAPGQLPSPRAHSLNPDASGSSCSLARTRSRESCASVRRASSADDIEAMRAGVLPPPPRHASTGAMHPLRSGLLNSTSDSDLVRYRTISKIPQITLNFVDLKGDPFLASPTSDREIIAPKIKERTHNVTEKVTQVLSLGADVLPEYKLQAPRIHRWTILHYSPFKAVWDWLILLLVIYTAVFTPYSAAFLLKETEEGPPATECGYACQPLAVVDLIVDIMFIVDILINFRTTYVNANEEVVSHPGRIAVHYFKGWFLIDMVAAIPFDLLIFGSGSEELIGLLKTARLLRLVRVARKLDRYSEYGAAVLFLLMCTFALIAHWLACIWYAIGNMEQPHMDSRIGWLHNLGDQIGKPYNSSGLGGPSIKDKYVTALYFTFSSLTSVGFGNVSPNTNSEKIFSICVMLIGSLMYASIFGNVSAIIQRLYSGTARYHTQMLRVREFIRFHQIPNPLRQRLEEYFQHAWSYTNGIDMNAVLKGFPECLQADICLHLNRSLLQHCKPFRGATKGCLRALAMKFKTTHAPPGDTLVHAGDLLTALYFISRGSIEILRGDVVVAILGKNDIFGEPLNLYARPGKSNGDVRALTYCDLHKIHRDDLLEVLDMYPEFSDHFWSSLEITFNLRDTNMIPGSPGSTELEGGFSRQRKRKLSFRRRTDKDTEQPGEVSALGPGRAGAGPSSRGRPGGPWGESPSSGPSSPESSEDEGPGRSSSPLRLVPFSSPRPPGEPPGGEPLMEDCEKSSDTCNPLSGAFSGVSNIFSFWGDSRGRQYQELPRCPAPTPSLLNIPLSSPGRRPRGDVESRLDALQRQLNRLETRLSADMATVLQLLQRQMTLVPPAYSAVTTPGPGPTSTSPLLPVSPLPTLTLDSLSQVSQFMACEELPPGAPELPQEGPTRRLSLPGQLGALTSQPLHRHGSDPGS

D(2) dopamine receptor = D(2) dopamine receptor (Homo sapiens, UniProt P14416); assay: Displacement of [3H]-spiperone from human dopamine D2 receptor expressed in CHO-K1 cell membranes after 120 mins by liquid scintillation counter method
D(2) dopamine receptor, sequence (P14416 whole entry): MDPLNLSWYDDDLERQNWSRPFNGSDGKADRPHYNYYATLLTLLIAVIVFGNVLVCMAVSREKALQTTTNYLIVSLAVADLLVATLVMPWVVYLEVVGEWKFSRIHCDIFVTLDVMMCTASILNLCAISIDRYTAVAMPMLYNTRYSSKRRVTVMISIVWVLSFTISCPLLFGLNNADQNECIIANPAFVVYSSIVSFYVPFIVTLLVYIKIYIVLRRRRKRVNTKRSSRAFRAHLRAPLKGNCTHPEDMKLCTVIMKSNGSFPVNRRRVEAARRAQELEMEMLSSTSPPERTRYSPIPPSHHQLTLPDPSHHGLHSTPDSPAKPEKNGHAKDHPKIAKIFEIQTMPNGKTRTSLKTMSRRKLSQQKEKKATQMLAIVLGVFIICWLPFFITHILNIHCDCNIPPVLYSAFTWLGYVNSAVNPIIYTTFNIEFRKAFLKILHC

D(3) dopamine receptor = D(3) dopamine receptor (Homo sapiens, UniProt P35462); assay: Displacement of [3H]-spiperone from human dopamine D3 receptor expressed in CHO-K1 cell membranes after 90 mins by liquid scintillation counter method
D(3) dopamine receptor, sequence (P35462 whole entry): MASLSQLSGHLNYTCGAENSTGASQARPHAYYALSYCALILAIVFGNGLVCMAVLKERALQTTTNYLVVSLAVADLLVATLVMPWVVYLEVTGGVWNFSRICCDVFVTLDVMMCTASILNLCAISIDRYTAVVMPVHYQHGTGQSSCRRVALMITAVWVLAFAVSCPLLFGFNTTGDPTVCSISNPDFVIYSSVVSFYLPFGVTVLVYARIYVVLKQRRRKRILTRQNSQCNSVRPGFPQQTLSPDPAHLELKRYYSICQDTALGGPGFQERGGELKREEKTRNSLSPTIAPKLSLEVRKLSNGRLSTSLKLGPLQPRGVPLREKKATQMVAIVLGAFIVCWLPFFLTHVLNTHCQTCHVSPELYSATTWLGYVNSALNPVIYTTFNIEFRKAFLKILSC

[3] = molecular target: D(1A) dopamine receptor (Homo sapiens) (UniProt P21728); assay: Binding affinity to dopamine D1 receptor (unknown origin)
D(1A) dopamine receptor (Homo sapiens), sequence (P21728 whole entry): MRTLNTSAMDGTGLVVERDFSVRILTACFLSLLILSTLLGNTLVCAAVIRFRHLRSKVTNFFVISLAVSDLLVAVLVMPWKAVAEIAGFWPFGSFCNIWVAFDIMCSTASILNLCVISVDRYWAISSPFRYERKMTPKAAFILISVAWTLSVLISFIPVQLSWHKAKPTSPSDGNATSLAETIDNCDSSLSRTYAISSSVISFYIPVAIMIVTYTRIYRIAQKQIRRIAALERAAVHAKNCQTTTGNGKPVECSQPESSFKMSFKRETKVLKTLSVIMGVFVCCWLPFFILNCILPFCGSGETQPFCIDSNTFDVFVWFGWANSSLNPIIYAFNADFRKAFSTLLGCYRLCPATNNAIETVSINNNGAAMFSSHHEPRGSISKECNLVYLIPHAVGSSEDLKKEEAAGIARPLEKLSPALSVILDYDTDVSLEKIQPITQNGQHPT

[4] = Half life in portal vein cannulated Sprague-Dawley rat model; conditions: in vivo
[5] = Permeability across apical to basolateral side in human Caco2 cells
[6] = Fraction unbound in Sprague-Dawley rat brain
Cytochrome P450 2D6 = Cytochrome P450 2D6 (Homo sapiens, UniProt P10635); assay: Inhibition of recombinant human CYP2D6 expressed in baculosomes preincubated for 10 mins followed by cofactor addition measured every minute for 10 mins using 4-methylaminomethyl-7-methoxycoumarin as substrate by CYPEX assay
Cytochrome P450 2D6, sequence (P10635 whole entry): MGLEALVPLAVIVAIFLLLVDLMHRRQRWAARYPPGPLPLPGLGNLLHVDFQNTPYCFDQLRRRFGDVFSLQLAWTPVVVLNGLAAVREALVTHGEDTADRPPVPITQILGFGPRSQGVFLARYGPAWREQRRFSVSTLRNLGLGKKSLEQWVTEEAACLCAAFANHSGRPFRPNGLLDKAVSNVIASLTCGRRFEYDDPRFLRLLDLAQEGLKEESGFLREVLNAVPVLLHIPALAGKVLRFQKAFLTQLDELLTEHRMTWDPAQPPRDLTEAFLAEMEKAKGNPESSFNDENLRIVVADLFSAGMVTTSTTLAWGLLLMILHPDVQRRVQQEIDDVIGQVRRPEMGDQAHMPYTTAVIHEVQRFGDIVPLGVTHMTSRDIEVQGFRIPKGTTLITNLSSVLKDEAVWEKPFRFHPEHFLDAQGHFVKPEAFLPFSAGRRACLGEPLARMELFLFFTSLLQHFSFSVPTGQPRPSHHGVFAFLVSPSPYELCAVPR

Cytochrome P450 3A4 [7] = molecular target: T1, Cytochrome P450 3A4 (Homo sapiens, UniProt P08684); assay: Inhibition of recombinant human CYP3A4 expressed in baculosomes preincubated for 10 mins followed by cofactor addition measured every minute for 10 mins using diethoxyflourescein as substrate by CYPEX assay
T1 sequence (P08684 whole entry): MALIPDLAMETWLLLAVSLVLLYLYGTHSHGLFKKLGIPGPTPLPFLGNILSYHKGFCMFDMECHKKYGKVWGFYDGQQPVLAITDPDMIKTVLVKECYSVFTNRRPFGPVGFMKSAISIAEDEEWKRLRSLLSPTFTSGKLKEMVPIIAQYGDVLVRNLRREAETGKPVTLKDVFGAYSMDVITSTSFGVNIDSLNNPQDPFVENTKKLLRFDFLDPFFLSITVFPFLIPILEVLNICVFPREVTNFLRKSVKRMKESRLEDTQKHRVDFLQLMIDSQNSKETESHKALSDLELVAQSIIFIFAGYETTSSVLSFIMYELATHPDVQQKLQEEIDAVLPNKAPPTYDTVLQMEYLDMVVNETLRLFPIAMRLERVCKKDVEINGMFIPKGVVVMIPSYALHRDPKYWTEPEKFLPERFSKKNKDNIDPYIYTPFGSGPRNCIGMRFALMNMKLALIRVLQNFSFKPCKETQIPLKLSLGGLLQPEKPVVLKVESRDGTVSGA

[8] = Volume of distribution at steady state in portal vein cannulated Sprague-Dawley rat model; conditions: in vivo
in vitro [9] = conditions: rat, liver microsomes, CLH
[10] = Fraction unbound in Sprague-Dawley rat blood
Cytochrome P450 2C9 = Cytochrome P450 2C9 (Homo sapiens, UniProt P11712); assay: Inhibition of recombinant human CYP2C9 expressed in baculosomes preincubated for 10 mins followed by cofactor addition measured every minute for 10 mins using 7-methoxy-4-trifluoromethylcoumarin-3-acetic acid as substrate by CYPEX assay
Cytochrome P450 2C9, sequence (P11712 whole entry): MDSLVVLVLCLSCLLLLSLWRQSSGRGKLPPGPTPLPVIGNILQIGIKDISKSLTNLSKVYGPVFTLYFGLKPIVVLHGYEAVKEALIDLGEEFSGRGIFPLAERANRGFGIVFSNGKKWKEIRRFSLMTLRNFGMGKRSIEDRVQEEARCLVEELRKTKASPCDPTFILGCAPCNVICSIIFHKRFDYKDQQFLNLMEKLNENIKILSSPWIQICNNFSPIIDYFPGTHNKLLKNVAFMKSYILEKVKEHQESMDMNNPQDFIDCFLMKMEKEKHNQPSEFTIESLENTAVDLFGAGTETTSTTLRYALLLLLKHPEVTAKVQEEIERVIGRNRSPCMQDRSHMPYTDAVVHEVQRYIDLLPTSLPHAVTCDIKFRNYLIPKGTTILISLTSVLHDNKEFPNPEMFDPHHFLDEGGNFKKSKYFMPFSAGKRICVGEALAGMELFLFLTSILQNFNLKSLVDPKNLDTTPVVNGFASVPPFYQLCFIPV

Cytochrome P450 2C19 = Cytochrome P450 2C19 (Homo sapiens, UniProt P33261); assay: Inhibition of recombinant human CYP2C19 expressed in baculosomes preincubated for 10 mins followed by cofactor addition measured every minute for 10 mins using 3-butyryl-7-methoxycoumarin as substrate by CYPEX assay
Cytochrome P450 2C19, sequence (P33261 whole entry): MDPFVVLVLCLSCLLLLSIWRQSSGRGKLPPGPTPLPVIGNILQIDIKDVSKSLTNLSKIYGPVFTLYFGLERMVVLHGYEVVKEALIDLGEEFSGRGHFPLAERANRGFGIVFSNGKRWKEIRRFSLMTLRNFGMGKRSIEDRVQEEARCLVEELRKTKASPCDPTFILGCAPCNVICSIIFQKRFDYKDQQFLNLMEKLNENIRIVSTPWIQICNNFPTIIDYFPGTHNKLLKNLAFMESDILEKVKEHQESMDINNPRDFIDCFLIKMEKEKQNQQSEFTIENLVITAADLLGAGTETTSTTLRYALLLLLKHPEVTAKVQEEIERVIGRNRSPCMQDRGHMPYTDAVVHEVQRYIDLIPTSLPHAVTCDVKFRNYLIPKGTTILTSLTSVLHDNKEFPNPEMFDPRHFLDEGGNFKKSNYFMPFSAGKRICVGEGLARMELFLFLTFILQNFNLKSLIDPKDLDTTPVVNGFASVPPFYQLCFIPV

[11] = Fraction absorbed in portal vein cannulated Sprague-Dawley rat model; conditions: in vivo
Cytochrome P450 3A4 [12] = molecular target: T1, Cytochrome P450 3A4; assay: Inhibition of recombinant human CYP3A4 expressed in baculosomes preincubated for 10 mins followed by cofactor addition measured every minute for 10 mins using 7-benzyloxyquinoline as substrate by CYPEX assay
[13] = Clearance in portal vein cannulated Sprague-Dawley rat blood; conditions: whole blood
in vitro [14] = conditions: human, liver microsomes, CLH
Cytochrome P450 1A2 = molecular target: T2, Cytochrome P450 1A2 (Homo sapiens, UniProt P05177); assay: Inhibition of recombinant human CYP1A2 expressed in baculosomes preincubated for 10 mins followed by cofactor addition measured every minute for 10 mins using ethoxyresorufin as substrate by CYPEX assay
T2 sequence (P05177 whole entry): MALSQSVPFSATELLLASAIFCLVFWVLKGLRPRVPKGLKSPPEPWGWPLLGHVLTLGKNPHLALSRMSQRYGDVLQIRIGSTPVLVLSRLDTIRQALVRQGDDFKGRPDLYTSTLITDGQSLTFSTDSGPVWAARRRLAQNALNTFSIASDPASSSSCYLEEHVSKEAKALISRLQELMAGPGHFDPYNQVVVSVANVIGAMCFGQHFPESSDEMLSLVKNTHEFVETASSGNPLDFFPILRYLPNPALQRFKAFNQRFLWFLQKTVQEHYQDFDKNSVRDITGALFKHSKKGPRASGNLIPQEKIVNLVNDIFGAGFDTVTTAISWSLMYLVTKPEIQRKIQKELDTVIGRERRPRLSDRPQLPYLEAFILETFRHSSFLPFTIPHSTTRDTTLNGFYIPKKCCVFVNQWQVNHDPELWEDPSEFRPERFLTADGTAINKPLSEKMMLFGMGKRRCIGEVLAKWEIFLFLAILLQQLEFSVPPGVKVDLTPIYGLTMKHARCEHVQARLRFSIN

[15] = molecular target: T3, Muscarinic acetylcholine receptor M1 (Homo sapiens, UniProt P11229); assay: Antagonist activity at recombinant human muscarinic M1 receptor expressed in CHO-K1 cells assessed as inhibition of acetylcholine induced calcium mobilization preincubated for 10 mins followed by acetylcholine addition measured after 1 hr by fluo-4 AM dye-based FLIPR assay; type: functional, cell-based
T3 sequence (P11229 whole entry): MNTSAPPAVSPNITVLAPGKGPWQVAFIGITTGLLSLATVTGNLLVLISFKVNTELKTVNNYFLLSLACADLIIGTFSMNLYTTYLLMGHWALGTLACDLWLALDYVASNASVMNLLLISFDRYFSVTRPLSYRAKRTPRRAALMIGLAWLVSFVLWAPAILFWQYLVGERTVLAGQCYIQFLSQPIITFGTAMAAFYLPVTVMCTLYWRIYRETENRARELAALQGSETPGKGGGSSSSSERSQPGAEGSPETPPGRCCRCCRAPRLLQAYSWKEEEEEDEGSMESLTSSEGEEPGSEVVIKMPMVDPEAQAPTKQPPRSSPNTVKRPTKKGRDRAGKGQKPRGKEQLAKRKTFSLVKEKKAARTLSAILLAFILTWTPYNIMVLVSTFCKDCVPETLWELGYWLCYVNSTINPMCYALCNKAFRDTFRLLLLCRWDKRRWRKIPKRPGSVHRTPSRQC

[16] = molecular target: Muscarinic acetylcholine receptor M3 (Homo sapiens, UniProt P20309); assay: Antagonist activity at recombinant human muscarinic M3 receptor expressed in CHO-K1 cells assessed as inhibition of acetylcholine induced calcium mobilization preincubated for 10 mins followed by acetylcholine addition measured after 1 hr by fluo-4 AM dye-based FLIPR assay; type: functional, cell-based
Muscarinic acetylcholine receptor M3, sequence (P20309 whole entry): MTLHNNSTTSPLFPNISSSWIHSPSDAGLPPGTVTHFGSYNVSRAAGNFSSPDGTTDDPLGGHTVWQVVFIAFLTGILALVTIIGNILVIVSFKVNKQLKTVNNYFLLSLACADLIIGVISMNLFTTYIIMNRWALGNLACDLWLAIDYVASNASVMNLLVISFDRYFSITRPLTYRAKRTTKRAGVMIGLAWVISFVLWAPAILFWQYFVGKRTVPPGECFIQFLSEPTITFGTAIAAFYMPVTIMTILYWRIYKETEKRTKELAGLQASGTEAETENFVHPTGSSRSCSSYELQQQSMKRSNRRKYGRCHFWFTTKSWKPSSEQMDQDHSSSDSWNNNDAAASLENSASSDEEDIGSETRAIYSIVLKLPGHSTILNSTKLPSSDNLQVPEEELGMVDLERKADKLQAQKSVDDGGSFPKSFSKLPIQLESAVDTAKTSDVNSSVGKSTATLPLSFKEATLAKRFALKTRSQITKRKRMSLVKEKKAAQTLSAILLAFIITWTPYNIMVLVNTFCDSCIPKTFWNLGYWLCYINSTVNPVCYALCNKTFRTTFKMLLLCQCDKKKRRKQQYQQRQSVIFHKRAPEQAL

[17] = molecular target: T4, D(4) dopamine receptor (Homo sapiens) (UniProt P21917); assay: Binding affinity to dopamine D4 receptor (unknown origin)
T4 sequence (whole entry): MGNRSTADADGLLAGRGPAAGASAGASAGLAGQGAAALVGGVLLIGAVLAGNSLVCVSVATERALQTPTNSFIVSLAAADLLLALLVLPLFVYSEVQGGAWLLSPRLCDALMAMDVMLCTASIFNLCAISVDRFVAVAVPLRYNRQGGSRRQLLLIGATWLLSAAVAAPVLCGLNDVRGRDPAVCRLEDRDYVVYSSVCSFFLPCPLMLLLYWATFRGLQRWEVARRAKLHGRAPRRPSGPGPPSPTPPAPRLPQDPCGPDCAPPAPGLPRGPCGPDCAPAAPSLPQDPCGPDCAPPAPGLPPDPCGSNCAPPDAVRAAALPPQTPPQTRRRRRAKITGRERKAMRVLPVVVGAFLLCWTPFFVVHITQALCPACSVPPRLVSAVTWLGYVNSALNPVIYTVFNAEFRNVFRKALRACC

Cc1ncoc1-c1nnc(SCCCN2CC3CCN(c4ccc(C(F)(F)F)cc4)C3C2)n1C.Cl (stereo not drawn)
solubility [1]: 300 µg/mL

Cc1ncoc1-c1nnc(SCCCN2CC3CCN(c4ccccc4)C3C2)n1C.Cl (stereo not drawn)
solubility [1]: > 2000 µg/mL

Cc1ncoc1-c1nnc(SCCCN2CC3CCN(c4cccc(F)c4)C3C2)n1C (racemic)
Selectivity ratio (Homo sapiens): 100 | IC50 [2]: 251 nM | Ki (D(2) dopamine receptor): 158 nM | Ki (D(3) dopamine receptor): 3.16 nM

Cc1ncoc1-c1nnc(SCCCN2CC3CCN(c4ccc(C(F)(F)F)cc4F)C3C2)n1C (racemic)
IC50 [2]: 15800 nM | Ki (D(2) dopamine receptor): 100 nM | Ki (D(3) dopamine receptor): 2 nM

Cc1ncoc1-c1nnc(SCCCN2CC3CCN(c4ccc(Cl)cc4Cl)C3C2)n1C (racemic)
IC50 [2]: 1260 nM | Ki (D(2) dopamine receptor): 501 nM | Ki (D(3) dopamine receptor): 5.01 nM

Cc1ncoc1-c1nnc(SCCCN2CC3CCN(c4cc(Cl)cc(Cl)c4)C3C2)n1C (racemic)
IC50 [2]: < 100 nM | Ki (D(2) dopamine receptor): 10 nM | Ki (D(3) dopamine receptor): 0.398 nM

Cn1c(SCCCN2CC3CCN(c4ccc(C(F)(F)F)cc4)C3C2)nnc1-c1cc[nH]c(=O)c1 (racemic)
Selectivity ratio (Homo sapiens): > 100

Cc1ncoc1-c1nnc(SCCCN2CC3CCN(c4ccccc4)C3C2)n1C (stereo in doubt; 6b)
Activity [3]: inactive

Cc1ncoc1-c1nnc(SCCCN2CC3CCN(c4ccc(C(F)(F)F)cc4F)C3C2)n1C (stereo in doubt; 8a)
IC50 [2]: 200 nM | Ki (D(2) dopamine receptor): 1580 nM | Ki (D(3) dopamine receptor): 5.01 nM

Cc1ncoc1-c1nnc(SCCCN2CC3CCN(c4ccc(C(F)(F)F)cc4F)C3C2)n1C (stereo in doubt; 8b)
Activity [3]: inactive

Cc1ncoc1-c1nnc(SCCCN2CC3CCN(c4ccc(F)cc4)C3C2)n1C (stereo in doubt; 9a)
half-life [4]: 18 min | Papp A→B ([5]; Caco-2, permeability): 17.5 ×10⁻⁶ cm/s | fraction unbound [6]: 0.095 | Ki (D(2) dopamine receptor): 126 nM | IC50 (Cytochrome P450 2D6): > 5000 nM | IC50 (Cytochrome P450 3A4 [7]): > 5000 nM | Vd [8]: 1.2 L/kg | microsomal CLint at 0.5 µM (in vitro [9]): 136 µL/min/mg | fraction unbound [10]: 0.14 | IC50 (Cytochrome P450 2C9): > 5000 nM | IC50 (Cytochrome P450 2C19): > 5000 nM | Fa [11]: 22% | IC50 (Cytochrome P450 3A4 [12]): > 5000 nM | clearance [13]: 53 mL/min/kg | microsomal CLint at 0.5 µM (in vitro [14]): 27 µL/min/mg | IC50 (Cytochrome P450 1A2): > 5000 nM

Cc1ncoc1-c1nnc(SCCCN2CC3CCN(c4cccc(C#N)c4)C3C2)n1C (stereo in doubt; 12a)
solubility [1]: > 2200 µg/mL | IC50 [2]: < 100 nM | Ki (D(2) dopamine receptor): 31.6 nM | Ki (D(3) dopamine receptor): 0.631 nM

Cc1ncoc1-c1nnc(SCCCN2CC3CCN(c4cccc(C#N)c4)C3C2)n1C (stereo in doubt; 12b)
IC50 [2]: 794 nM | Ki (D(2) dopamine receptor): 631 nM | Ki (D(3) dopamine receptor): 6.31 nM

Cn1c(SCCCN2CC3CCN(c4ccc(C(F)(F)F)cc4)C3C2)nnc1-c1cnccn1 (stereo in doubt; 17b)
Ki (D(2) dopamine receptor): 158 nM | IC50 (Cytochrome P450 2D6): > 2000 nM | IC50 (Cytochrome P450 3A4 [7]): > 2000 nM | microsomal CLint at 0.5 µM (in vitro [9]): > 700 µL/min/mg | IC50 (Cytochrome P450 2C9): > 2000 nM | IC50 (Cytochrome P450 2C19): > 2000 nM | IC50 (Cytochrome P450 3A4 [12]): > 2000 nM | microsomal CLint at 0.5 µM (in vitro [14]): > 700 µL/min/mg | IC50 (Cytochrome P450 1A2): > 2000 nM

CC(C)Oc1ccccc1N1CCC2CN(CCCSc3nnc(-c4cnccn4)n3C)CC21 (stereo in doubt; 35b)
fraction unbound [6]: 0.13 | Ki (D(2) dopamine receptor): 251 nM | IC50 (Cytochrome P450 2D6): > 1000 nM | IC50 (Cytochrome P450 3A4 [7]): > 1000 nM | microsomal CLint at 0.5 µM (in vitro [9]): > 750 µL/min/mg | fraction unbound [10]: 0.024 | IC50 (Cytochrome P450 2C9): > 1000 nM | IC50 (Cytochrome P450 2C19): > 1000 nM | IC50 (Cytochrome P450 3A4 [12]): > 1000 nM | microsomal CLint at 0.5 µM (in vitro [14]): > 750 µL/min/mg | IC50 (Cytochrome P450 1A2): > 1000 nM | Ki (D(3) dopamine receptor): 7.94 nM

Cn1c(SCCCN2CC3CCN(c4ccc(F)cc4F)C3C2)nnc1-c1cnccn1 (stereo in doubt; 36b)
Ki (D(2) dopamine receptor): 316 nM | IC50 (Cytochrome P450 2D6): > 1000 nM | IC50 (Cytochrome P450 3A4 [7]): > 1000 nM | microsomal CLint at 0.5 µM (in vitro [9]): > 650 µL/min/mg | IC50 (Cytochrome P450 2C9): > 1000 nM | IC50 (Cytochrome P450 2C19): > 1000 nM | IC50 (Cytochrome P450 3A4 [12]): > 1000 nM | microsomal CLint at 0.5 µM (in vitro [14]): > 650 µL/min/mg | IC50 (Cytochrome P450 1A2): > 1000 nM | Ki (D(3) dopamine receptor): 3.98 nM

Cn1c(SCCCN2CC3CCN(c4ccccc4C(F)(F)F)C3C2)nnc1-c1cccnc1 (stereo in doubt; 52a) [listing 1 of 2 here]
Ki (D(2) dopamine receptor): 398 nM | Ki [15]: 631 nM | IC50 (Cytochrome P450 2D6): > 3000 nM | IC50 (Cytochrome P450 3A4 [7]): > 3000 nM | microsomal CLint at 0.5 µM (in vitro [9]): > 750 µL/min/mg | IC50 (Cytochrome P450 2C9): > 3000 nM | IC50 (Cytochrome P450 2C19): > 3000 nM | IC50 (Cytochrome P450 3A4 [12]): 920 nM | Ki [16]: 2190 nM | microsomal CLint at 0.5 µM (in vitro [14]): > 750 µL/min/mg | IC50 (Cytochrome P450 1A2): > 3000 nM

Cn1c(SCCCN2CC3CCN(c4ccccc4C(F)(F)F)C3C2)nnc1-c1cccnc1 (stereo in doubt; 52a) [listing 2 of 2 here]
Activity [3]: inactive | Activity [17]: inactive

Cn1c(SCCCN2CC3CCN(c4ccc(C(F)(F)F)cc4)C3C2)nnc1-c1cc[nH]c(=O)c1 (stereo in doubt; 55b)
Selectivity ratio (Homo sapiens): > 250 | Activity [3]: inactive

Cn1c(SCCCN2CC3CCN(c4ccc(C(F)(F)F)cc4)C3C2)nnc1-c1ccc(=O)n(C)c1 (stereo in doubt; 57a)
permeability ([5]; Caco-2): 39 nm/s | microsomal CLint at 0.5 µM (in vitro [9]): 23 µL/min/mg | microsomal CLint at 0.5 µM (in vitro [14]): 152 µL/min/mg
